Data taken from US8192962B2, “Processes for detecting toxic substances” (Daikin Industries, Ltd., priority 2001, dated 2012).

Test system: Mitochondria-located protein genes
Assay: DNA chip mRNA expression in yeast, mitochondria-located protein genes (Table 2)
Format: cell-based, Saccharomyces cerevisiae S288C
Conditions: cells incubated two hours with the chemical substance
How it was run: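 S. cerevisiae S288C grown at 25° C. in YPD to log phase, then exposed 2 h to a toxicant at a growth-inhibiting, non-lethal concentration; untreated cells as control. Poly(A) mRNA reverse-transcribed with Cy3-dUTP or Cy5-dUTP, hybridized >12 h at 65° C. to whole-genome yeast DNA chip; value = fluorescence ratio treated/untreated.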

S=C([S-])NCCNC(=S)[S-].[Zn+2] [(11), zinc N,N′-ethylenebis(dithiocarbamate)]
The level of expressed mRNA in the presence of chemical substance/The level of expressed mRNA in the absence of chemical substance (yeast gene YAL039C): 1.1 | The level of expressed mRNA in the presence of chemical substance/The level of expressed mRNA in the absence of chemical substance (yeast gene YBL022C): 1.1 | The level of expressed mRNA in the presence of chemical substance/The level of expressed mRNA in the absence of chemical substance (yeast gene YBL030C): 1.1 | The level of expressed mRNA in the presence of chemical substance/The level of expressed mRNA in the absence of chemical substance (yeast gene YBL038W): 0.7 | The level of expressed mRNA in the presence of chemical substance/The level of expressed mRNA in the absence of chemical substance (yeast gene YBL099W): 2.1 | The level of expressed mRNA in the presence of chemical substance/The level of expressed mRNA in the absence of chemical substance (yeast gene YBR003W): 1.3 | The level of expressed mRNA in the presence of chemical substance/The level of expressed mRNA in the absence of chemical substance (yeast gene YBR044C): 1.1 | The level of expressed mRNA in the presence of chemical substance/The level of expressed mRNA in the absence of chemical substance (yeast gene YBR091C): 0.7 | The level of expressed mRNA in the presence of chemical substance/The level of expressed mRNA in the absence of chemical substance (yeast gene YBR122C): 1.2 | The level of expressed mRNA in the presence of chemical substance/The level of expressed mRNA in the absence of chemical substance (yeast gene YBR185C): 1.2 | The level of expressed mRNA in the presence of chemical substance/The level of expressed mRNA in the absence of chemical substance (yeast gene YBR221C): 1.2 | The level of expressed mRNA in the presence of chemical substance/The level of expressed mRNA in the absence of chemical substance (yeast gene YBR251W): 1.5 | The level of expressed mRNA in the presence of chemical substance/The level of expressed mRNA in the absence of chemical substance (yeast gene YBR282W): 0.9 | The level of expressed mRNA in the presence of chemical substance/The level of expressed mRNA in the absence of chemical substance (yeast gene YCL057W): 1.6 | The level of expressed mRNA in the presence of chemical substance/The level of expressed mRNA in the absence of chemical substance (yeast gene YCR046C): 1.5 | The level of expressed mRNA in the presence of chemical substance/The level of expressed mRNA in the absence of chemical substance (yeast gene YCR083W): 1.8 | The level of expressed mRNA in the presence of chemical substance/The level of expressed mRNA in the absence of chemical substance (yeast gene YDL067C): 1.4 | The level of expressed mRNA in the presence of chemical substance/The level of expressed mRNA in the absence of chemical substance (yeast gene YDL181W): 0.8 | The level of expressed mRNA in the presence of chemical substance/The level of expressed mRNA in the absence of chemical substance (yeast gene YDL198C): 2.5 | The level of expressed mRNA in the presence of chemical substance/The level of expressed mRNA in the absence of chemical substance (yeast gene YDR079W): 1.3 | The level of expressed mRNA in the presence of chemical substance/The level of expressed mRNA in the absence of chemical substance (yeast gene YDR178W): 2.0 | The level of expressed mRNA in the presence of chemical substance/The level of expressed mRNA in the absence of chemical substance (yeast gene YDR231C): 1.3 | The level of expressed mRNA in the presence of chemical substance/The level of expressed mRNA in the absence of chemical substance (yeast gene YDR258C): 1.7 | The level of expressed mRNA in the presence of chemical substance/The level of expressed mRNA in the absence of chemical substance (yeast gene YDR298C): 1.2 | The level of expressed mRNA in the presence of chemical substance/The level of expressed mRNA in the absence of chemical substance (yeast gene YDR347W): 0.8 | The level of expressed mRNA in the presence of chemical substance/The level of expressed mRNA in the absence of chemical substance (yeast gene YDR377W): 1.4 | The level of expressed mRNA in the presence of chemical substance/The level of expressed mRNA in the absence of chemical substance (yeast gene YDR529C): 0.8 | The level of expressed mRNA in the presence of chemical substance/The level of expressed mRNA in the absence of chemical substance (yeast gene YEL024W): 0.9 | The level of expressed mRNA in the presence of chemical substance/The level of expressed mRNA in the absence of chemical substance (yeast gene YEL039C): 1.7 | The level of expressed mRNA in the presence of chemical substance/The level of expressed mRNA in the absence of chemical substance (yeast gene YER178W): 2.5 | The level of expressed mRNA in the presence of chemical substance/The level of expressed mRNA in the absence of chemical substance (yeast gene YFL016C): 1.2 | The level of expressed mRNA in the presence of chemical substance/The level of expressed mRNA in the absence of chemical substance (yeast gene YGL018C): 1.1 | The level of expressed mRNA in the presence of chemical substance/The level of expressed mRNA in the absence of chemical substance (yeast gene YGL187C): 0.7 | The level of expressed mRNA in the presence of chemical substance/The level of expressed mRNA in the absence of chemical substance (yeast gene YGL191W): 1.6 | The level of expressed mRNA in the presence of chemical substance/The level of expressed mRNA in the absence of chemical substance (yeast gene YGR008C): 2.6 | The level of expressed mRNA in the presence of chemical substance/The level of expressed mRNA in the absence of chemical substance (yeast gene YGR028W): 1.1 | The level of expressed mRNA in the presence of chemical substance/The level of expressed mRNA in the absence of chemical substance (yeast gene YGR062C): 1.6 | The level of expressed mRNA in the presence of chemical substance/The level of expressed mRNA in the absence of chemical substance (yeast gene YGR076C): 1.7 | The level of expressed mRNA in the presence of chemical substance/The level of expressed mRNA in the absence of chemical substance (yeast gene YGR082W): 1.3 | The level of expressed mRNA in the presence of chemical substance/The level of expressed mRNA in the absence of chemical substance (yeast gene YGR174C): 1.3 | The level of expressed mRNA in the presence of chemical substance/The level of expressed mRNA in the absence of chemical substance (yeast gene YGR244C): 1.8 | The level of expressed mRNA in the presence of chemical substance/The level of expressed mRNA in the absence of chemical substance (yeast gene YHR008C): 2.1 | The level of expressed mRNA in the presence of chemical substance/The level of expressed mRNA in the absence of chemical substance (yeast gene YIL155C): 1.3 | The level of expressed mRNA in the presence of chemical substance/The level of expressed mRNA in the absence of chemical substance (yeast gene YJL096W): 1.2 | The level of expressed mRNA in the presence of chemical substance/The level of expressed mRNA in the absence of chemical substance (yeast gene YJL102W): 0.7 | The level of expressed mRNA in the presence of chemical substance/The level of expressed mRNA in the absence of chemical substance (yeast gene YJL133W): 1.2 | The level of expressed mRNA in the presence of chemical substance/The level of expressed mRNA in the absence of chemical substance (yeast gene YJL166W): 1.4 | The level of expressed mRNA in the presence of chemical substance/The level of expressed mRNA in the absence of chemical substance (yeast gene YJL180C): 1.4 | The level of expressed mRNA in the presence of chemical substance/The level of expressed mRNA in the absence of chemical substance (yeast gene YJR045C): 1.4 | The level of expressed mRNA in the presence of chemical substance/The level of expressed mRNA in the absence of chemical substance (yeast gene YJR077C): 1.6
